Source: patent publication US10604739B2, “Cardiomyocyte production” (Cellular Dynamics International, Inc., priority 2009, dated 2020)
Where “and” joins values, the source holds several entries; their conditions need not be identical. Equal values may be shown once.

Tests used:
[1] = tested on: pluripotent stem cell-derived cardiomyocytes; conditions: cited from earlier work
iPS 6.1 and iPS 6.1 MRB = assay: iPS cell passaging with NaCitrate in Double Stacks; format: cell-based, human
Description: Dissociated iPS cells were rinsed with D-PBS (Dulbecco's Phosphate Buffered Saline) free of Ca^2+ and Mg^2+ and the media were aspirated. The cells were then incubated with appropriate amount (i.e., 1 mL for one well of 6-well plate, 15 mL for T-150 flask, etc) of 15 mM NaCitrate, 165 mM KCl, pH 7.3, OSM 340, at room temperature for 6-15 minutes. After incubation, the NaCitrate solution were aspirated with the cells still loosely attached. The cells were resuspended in appropriate amount of TeSR with 1 μM H1152 and distributed to Matrigel™ surfaced vessel.
For scale up production of the starting material from T150 flasks to Corning Double Stacks, and for assessment of the ability of iPS cells to be passaged as single cells/small clumps with NaCitrate, iPS 6.1 and iPS 6.1 MRB were passaged with 15 mM NaCitrate as single cells or small cell clumps into double stacks while maintaining T150 control flasks split with dispase (see FIG. 1 for experimental design). […] Cells were assessed at passage 4 and passage 7 with cardiogenesis, pluripotency panel, and karyotype. […] Aggregate images and cTnT staining for cardiomyocytes were analyzed on day 14 after splitting (FIGS. 4A-D, FIGS. 5A-C, FIGS. 6A-B, FIGS. 7A-C). Pluripotency profiles of iPS cells after passaging with NaCitrate and dispase was compared by flow cytometry using five pluripotency markers (FIGS. 8A-C). It appears safe to passage iPS cells at least four times with the NaCitrate method.
Cardiogenesis was also analyzed for those iPS cells after passaging with NaCitrate and data were compiled in FIG. 9. […] The last three “spinner” samples come from Double Stack iPS 6.1 MRB cells that were left over from various Double stack harvests. An average yield of 110e6 cells/L was obtained in 1 L spinner with cells passaged in double stacks with NaCitrate.

iPS6.1 cells [2] = assay: iPS6.1 Four Corners experiment, FGF x HGF cardiac induction; format: cell-based, human; conditions: iPS6.1 cells, 25 ng/mL FGF and/or 50 ng/mL HGF, single T25 flask, day 14; listed as FGF only
Description: (§1) Aggregate formation and cardiac induction procedures of those iPS cells at different initial densities were performed essentially the same as described in Examples 4 except different concentrations of human HGF (hHGF) and FGF were applied to Aggregate Formation Medium, Aggregate Transition Medium and Cardiac Induction Medium.
Concurrent with the second iPS growth factor titration, a simple experiment (Table 19) was set up with iPS6.1 cells to test the 2×2 matrix of 0 and 25 ng/mL FGF and 0 and 50 ng/mL HGF. The positive concentrations of FGF and HGF were chosen based on the current best practices for iPS6.1 cells at the time and were identical to the conditions used for cardiac induction of H1 cells in both the plated and suspension processes. This experiment confirmed previous work showing the necessity of FGF for the process.

iPS6.1 cells [3] = assay: iPS6.1 Growth Factor Titration #1; format: cell-based, human; conditions: hbFGF 0 or 25 ng/mL, FIGS. 29A-B
Description: as §1
Conditions without FGF had virtually no surviving aggregates and no measurable cardiomyocytes (FIGS. 29A-B). On the other hand, all conditions with FGF yielded cardiomyocytes independent of HGF concentration (FIGS. 29A-B).

H9-TGZ cells = assay: H9-TGZ Growth Factor Titration #2; format: cell-based, human; conditions: FIGS. 31A-C
Description: as §1
While the iPS6.1 optimization was underway, a separate series of experiments was conducted to optimize the growth factor concentrations for the H9-TGZ cells. […] Therefore, the FGF range tested was higher than that in the recent iPS6.1 experiments. This experiment confirmed that optimum cardiomyocyte production requires 100-150 ng/mL FGF with the H9-TGZ cells (FIGS. 31A-C).

iPS6.1 cells [4] = assay: iPS6.1 Growth Factor Titration #2; format: cell-based, human; conditions: hbFGF 3-100 ng/mL, FIGS. 30A-B
Description: as §1
Based on the results of the first experiment (see FIGS. 29A-B), the second iPS6.1 growth factor titration focused on the lower dose range for both FGF and HGF (FIGS. 30A-B). […] However, it is important to note that in no case did the omission of HGF lead to the failure of a condition which was otherwise successful in the presence of HGF.

ROCK2 = conditions: ROCK1/ROCK2; cited from earlier work

For `CNC[C@H](O)c1cccc(O)c1` [phenylephrine], which Chronotropic effect [1] is on record?
Its Chronotropic effect is “positive chronotropic effect”.

What does the source list for `O=C([O-])CC(O)(CC(=O)[O-])C(=O)[O-].[Na+].[Na+].[Na+]` [NaCitrate]?
Average yield of cardiomyocytes (iPS 6.1 and iPS 6.1 MRB; 1 L spinner, cells passaged in double stacks with NaCitrate): 110e6 cells/L; Doubling time (iPS 6.1 and iPS 6.1 MRB; Double Stack NaCitrate conditions, 15 mM NaCitrate): ~30 h; Karyotype (iPS 6.1 and iPS 6.1 MRB; cells split 4 times with NaCitrate): maintained a normal karyotype

Which Chronotropic effect [1] does the source give for `CC(C)NCC(O)c1ccc(O)c(O)c1` (centres unmarked) [isoprenaline] here?
Its Chronotropic effect is “positive chronotropic effect”.

Which Contractile activity [1] does the source give for `COc1ccc([C@@H]2Sc3ccccc3N(CCN(C)C)C(=O)[C@@H]2OC(C)=O)cc1` [diltiazem] here?
The Contractile activity was “inhibits contractile activity in a dose-dependent manner”.

For “FGF: human recombinant basic FGF, R&D systems”, which “% cTNT+” value (iPS6.1 cells [2]) is on record?
Its value is 11.2% and 11.9% and 13.1%.

And the “Requirement for CM differentiation process” value (iPS6.1 cells [3])?
The value was “required for the CM differentiation process to be successful”.

What about the “FGF concentration required for optimum cardiomyocyte production” value (H9-TGZ cells) of the same compound?
Its value is 100 to 150 ng/mL.

And the “FGF dose response (aggregate survival, cardiogenesis)” value (iPS6.1 cells [4])?
Its value is “too little FGF led to poor aggregate survival and high doses had survival but lacked cardiogenesis”.
